Values after ≈ are worked out from the molar mass of the structure shown.
Legend:
Format in all cases: functional
Bacillus subtilis = test: Antibacterial activity against penicillin-susceptible Bacillus subtilis ATCC9372 assessed as bacterial growth inhibition incubated for 20 hrs by CLSI based broth microdilution method
Staphylococcus aureus [1] = test: Antibacterial activity against Staphylococcus aureus clinical isolate assessed as bacterial growth inhibition incubated for 20 hrs by CLSI based broth microdilution method
Enterococcus faecalis [2] = test: Antibacterial activity against vancomycin-resistant Enterococcus faecalis ATCC51299 assessed as bacterial growth inhibition incubated for 20 hrs by CLSI based broth microdilution method
Streptococcus pyogenes [3] = test: Antibacterial activity against erythromycin-resistant Streptococcus pyogenes 2 clinical isolate assessed as bacterial growth inhibition incubated for 20 hrs by CLSI based broth microdilution method
Acinetobacter baumannii = test: Antibacterial activity against Acinetobacter baumannii ATCC19606 assessed as bacterial growth inhibition incubated for 20 hrs by CLSI based broth microdilution method
Enterococcus faecalis [4] = test: Antibacterial activity against vancomycin-susceptible Enterococcus faecalis ATCC29212 assessed as bacterial growth inhibition incubated for 20 hrs by CLSI based broth microdilution method
Staphylococcus aureus [5] = test: Antibacterial activity against erythromycin-susceptible Staphylococcus aureus ATCC25923 assessed as bacterial growth inhibition incubated for 20 hrs by CLSI based broth microdilution method
Streptococcus pyogenes [6] = test: Antibacterial activity against erythromycin-susceptible Streptococcus pyogenes 1 assessed as bacterial growth inhibition incubated for 20 hrs by CLSI based broth microdilution method
Klebsiella pneumoniae = test: Antibacterial activity against Klebsiella pneumoniae ATCC BAA-1902 assessed as bacterial growth inhibition incubated for 20 hrs by CLSI based broth microdilution method
Escherichia coli [7] = test: Antibacterial activity against penicillin-susceptible Escherichia coli ATCC25922 assessed as bacterial growth inhibition incubated for 20 hrs by CLSI based broth microdilution method
Staphylococcus aureus [8] = test: Antibacterial activity against methicillin-resistant Staphylococcus aureus ATCC43300 assessed as bacterial growth inhibition incubated for 20 hrs by CLSI based broth microdilution method
Bacillus pumilus = test: Antibacterial activity against penicillin-susceptible Bacillus pumilus CMCC63202 assessed as bacterial growth inhibition incubated for 20 hrs by CLSI based broth microdilution method
[9] = tested on: Staphylococcus epidermidis; test: Antibacterial activity against penicillin-resistant Staphylococcus epidermidis clinical isolate assessed as bacterial growth inhibition incubated for 20 hrs by CLSI based broth microdilution method
Escherichia coli [10] = test: Antibacterial activity against wild-type Escherichia coli BW25113 assessed as bacterial growth inhibition incubated for 20 hrs by CLSI based broth microdilution method
Staphylococcus aureus [11] = test: Antibacterial activity against penicillin-resistant Staphylococcus aureus ATCC31007 assessed as bacterial growth inhibition incubated for 20 hrs by CLSI based broth microdilution method
Enterococcus faecium [12] = test: Antibacterial activity against vancomycin-susceptible Enterococcus faecium ATCC19434 assessed as bacterial growth inhibition incubated for 20 hrs by CLSI based broth microdilution method
Enterococcus faecium [13] = test: Antibacterial activity against vancomycin-resistant Enterococcus faecium ATCC51559 assessed as bacterial growth inhibition incubated for 20 hrs by CLSI based broth microdilution method

Compound | MIC (Bacillus subtilis) | MIC (Staphylococcus aureus [1]) | MIC (Enterococcus faecalis [2]) | MIC (Streptococcus pyogenes [3]) | MIC (Acinetobacter baumannii) | MIC (Enterococcus faecalis [4]) | MIC (Staphylococcus aureus [5]) | MIC (Streptococcus pyogenes [6]) | MIC (Klebsiella pneumoniae) | MIC (Escherichia coli [7]) | MIC (Staphylococcus aureus [8]) | MIC (Bacillus pumilus) | MIC [9] | MIC (Escherichia coli [10]) | MIC (Staphylococcus aureus [11]) | MIC (Enterococcus faecium [12]) | MIC (Enterococcus faecium [13])
CC[C@H]1OC(=O)[C@H](C)[C@@H](O[C@H]2C[C@@](C)(OC)[C@@H](O)[C@H](C)O2)[C@H](C)[C@@H](O[C@@H]2O[C@H](C)C[C@H](N(C)C)[C@H]2O)[C@](C)(O)C[C@@H](C)CN(C)[C@H](C)[C@@H](O)[C@]1(C)O [AZITHROMYCIN] | 0.25 µg/mL (≈ 0.334 µM) | > 64 µg/mL | > 64 µg/mL | > 64 µg/mL | 2 µg/mL (≈ 2.67 µM) | 1 µg/mL (≈ 1.34 µM) | 0.25 µg/mL (≈ 0.334 µM) | 0.03 µg/mL (≈ 0.0401 µM) | 64 µg/mL (≈ 85.4 µM) | 64 µg/mL (≈ 85.4 µM) | > 64 µg/mL | 0.5 µg/mL (≈ 0.668 µM) | > 64 µg/mL | > 64 µg/mL | > 64 µg/mL | 8 µg/mL (≈ 10.7 µM) | > 64 µg/mL
Cc1ccccc1-c1c[n+](C)c(-c2ccc(C(C)(C)C)cc2)cc1/C=C/c1ccc(F)cc1.[I-] | 0.5 µg/mL | 0.25 µg/mL | 2 µg/mL | 2 µg/mL | 2 µg/mL | 0.5 µg/mL | 1 µg/mL | 2 µg/mL | 8 µg/mL | 8 µg/mL | 0.5 µg/mL | 0.5 µg/mL | 1 µg/mL | 4 µg/mL | 1 µg/mL | 1 µg/mL | 1 µg/mL
C[n+]1cc(-c2ccccc2)c(/C=C/c2ccc(Cl)c(Cl)c2)cc1-c1ccc(C(C)(C)C)cc1.[I-] | 2 µg/mL | 1 µg/mL | 2 µg/mL | 4 µg/mL | 4 µg/mL | 2 µg/mL | 2 µg/mL | 8 µg/mL | > 64 µg/mL | > 64 µg/mL | 1 µg/mL | 2 µg/mL | 2 µg/mL | 8 µg/mL | 2 µg/mL | 1 µg/mL | 1 µg/mL
CCCOc1ccc(/C=C/c2cc(-c3ccccc3)c[n+](C)c2-c2ccccc2)cc1.[I-] | 2 µg/mL | 0.5 µg/mL | 8 µg/mL | 4 µg/mL | 8 µg/mL | 8 µg/mL | 0.5 µg/mL | 2 µg/mL | 8 µg/mL | 32 µg/mL | 2 µg/mL | 4 µg/mL | 4 µg/mL | 64 µg/mL | 4 µg/mL | 8 µg/mL | 8 µg/mL
C[n+]1cc(-c2ccccc2)cc(/C=C/c2ccc(C#N)cc2)c1-c1ccccc1.[I-] | 32 µg/mL | 32 µg/mL | > 64 µg/mL | 32 µg/mL | 64 µg/mL | > 64 µg/mL | 8 µg/mL | 32 µg/mL | > 64 µg/mL | > 64 µg/mL | 64 µg/mL | > 64 µg/mL | > 64 µg/mL | > 64 µg/mL | > 64 µg/mL | > 64 µg/mL | > 64 µg/mL
CCCCCCCOc1ccc(/C=C/c2cc(-c3ccccc3)c[n+](C)c2-c2ccccc2)cc1.[I-] | 1 µg/mL | 8 µg/mL | > 64 µg/mL | 8 µg/mL | 2 µg/mL | 4 µg/mL | 0.25 µg/mL | 4 µg/mL | 8 µg/mL | 8 µg/mL | 8 µg/mL | 1 µg/mL | 64 µg/mL | 8 µg/mL | 64 µg/mL | 2 µg/mL | 64 µg/mL
CN(C)[C@@H]1C(O)=C(C(N)=O)C(=O)[C@@]2(O)C(O)=C3C(=O)c4c(O)cccc4[C@@](C)(O)[C@H]3C[C@@H]12 [TETRACYCLINE] | 0.5 µg/mL (≈ 1.13 µM) | 1 µg/mL (≈ 2.25 µM) | 2 µg/mL (≈ 4.5 µM) | 64 µg/mL (≈ 144 µM) | 8 µg/mL (≈ 18 µM) | 64 µg/mL (≈ 144 µM) | 0.5 µg/mL (≈ 1.13 µM) | 1 µg/mL (≈ 2.25 µM) | 32 µg/mL (≈ 72 µM) | 0.5 µg/mL (≈ 1.13 µM) | 0.5 µg/mL (≈ 1.13 µM) | 64 µg/mL (≈ 144 µM) | 32 µg/mL (≈ 72 µM) | 2 µg/mL (≈ 4.5 µM) | 64 µg/mL (≈ 144 µM) | 2 µg/mL (≈ 4.5 µM) | 2 µg/mL (≈ 4.5 µM)
COc1cc(/C=C/c2cc(-c3ccccc3)c[n+](C)c2-c2ccccc2)cc(OC)c1OC.[I-] | 16 µg/mL | 16 µg/mL | > 64 µg/mL | 16 µg/mL | > 64 µg/mL | > 64 µg/mL | > 64 µg/mL | 16 µg/mL | > 64 µg/mL | > 64 µg/mL | 64 µg/mL | 64 µg/mL | > 64 µg/mL | > 64 µg/mL | > 64 µg/mL | > 64 µg/mL | > 64 µg/mL
C=CC1=C(C(=O)O)N2C(=O)[C@@H](NC(=O)/C(=N\OCC(=O)O)c3csc(N)n3)[C@H]2SC1 [CEFIXIME] | 2 µg/mL (≈ 4.41 µM) | 8 µg/mL (≈ 17.6 µM) | > 64 µg/mL | < 0.062 µg/mL | 32 µg/mL (≈ 70.6 µM) | > 64 µg/mL | 1 µg/mL (≈ 2.21 µM) | < 0.062 µg/mL | > 64 µg/mL | < 0.062 µg/mL | 4 µg/mL (≈ 8.82 µM) | > 64 µg/mL | > 64 µg/mL | < 0.062 µg/mL | > 64 µg/mL | > 64 µg/mL | > 64 µg/mL
CCCCCOc1ccc(/C=C/c2cc(-c3ccccc3)c[n+](C)c2-c2ccccc2)cc1.[I-] | 0.5 µg/mL | 1 µg/mL | 2 µg/mL | 2 µg/mL | 2 µg/mL | 2 µg/mL | 0.25 µg/mL | 2 µg/mL | 8 µg/mL | 4 µg/mL | 1 µg/mL | 1 µg/mL | 1 µg/mL | 4 µg/mL | 1 µg/mL | 2 µg/mL | 2 µg/mL
COc1ccc(/C=C/c2cc(-c3ccccc3)c[n+](C)c2-c2ccccc2)cc1.[I-] | 8 µg/mL | 4 µg/mL | 64 µg/mL | 8 µg/mL | 32 µg/mL | 32 µg/mL | 2 µg/mL | 4 µg/mL | > 64 µg/mL | > 64 µg/mL | 16 µg/mL | 32 µg/mL | 2 µg/mL | > 64 µg/mL | 64 µg/mL | 64 µg/mL | 64 µg/mL
C[n+]1cc(-c2ccccc2)c(/C=C/c2ccc(N3CCCC3)cc2)cc1-c1ccc2ccccc2c1.[I-] | 1 µg/mL | 0.5 µg/mL | 2 µg/mL | 1 µg/mL | 1 µg/mL | 2 µg/mL | 0.5 µg/mL | 0.5 µg/mL | 16 µg/mL | 64 µg/mL | 0.5 µg/mL | 1 µg/mL | 2 µg/mL | 4 µg/mL | 1 µg/mL | 1 µg/mL | 2 µg/mL
CCCOc1ccc(/C=C/c2cc(-c3ccc(C(C)(C)C)cc3)[n+](C)cc2-c2ccccc2)cc1.[I-] | 0.125 µg/mL | 0.5 µg/mL | 1 µg/mL | 2 µg/mL | 2 µg/mL | 2 µg/mL | 0.125 µg/mL | 2 µg/mL | 8 µg/mL | 4 µg/mL | 0.5 µg/mL | 1 µg/mL | 1 µg/mL | 8 µg/mL | 1 µg/mL | 1 µg/mL | 1 µg/mL
C[n+]1cc(-c2ccccc2)cc(/C=C/c2cccc(Br)c2)c1-c1ccccc1.[I-] | 4 µg/mL | 2 µg/mL | 16 µg/mL | 8 µg/mL | 16 µg/mL | 16 µg/mL | 4 µg/mL | 4 µg/mL | 64 µg/mL | 64 µg/mL | 4 µg/mL | 16 µg/mL | 8 µg/mL | > 64 µg/mL | 16 µg/mL | 16 µg/mL | 16 µg/mL
